Counter-ions that a name gives are not always drawn.
Key:
HT-29 cells = assay: ECtfs (Two-Fold Sensitization) Assay; format: cell-based
Experimental: An inhibitor of CHK1 can potentiate the anti-proliferative activity of gemcitabine (or other cytotoxics) through abrogation of the intra-S phase checkpoint, resulting in sustained and increased DNA damage. The capacity for continued tumor cell proliferation after DNA damage can be analyzed by determining the ability of cells to replicate their DNA. […] In this assay, cells are treated with gemcitabine, and then with the compound of Example 2. Following a recovery period, cells are assayed for the ability to incorporate radioactive thymidine into DNA during S phase. The ECtfs parameter is a measure of the concentration of a CHK1 inhibitor necessary to reduce by half the GI90 concentration of gemcitabine, measured in this assay in the absence of CHK1 inhibition. HT-29 cells (obtained from ATCC), are grown in RPMI 1640 plus (Gibco™) 10% (v/v) heat inactivated FBS. These cells are plated at 1.3×10^3 per well on Corning Costar 96-well tissue culture plates. After plating the cells, the tissue culture plates are held at room temperature for 45 minutes, before returning to 37° C. Plates are incubated for 24 hours prior to gemcitabine addition. Before gemcitabine addition, medium is removed from all wells and replaced with 150 μL per well of fresh RPMI medium. Gemcitabine stocks at 10 mM are prepared in PBS. Gemcitabine dilutions were prepared at 4× concentrations in RPMI medium and added to wells at 50 μL per well. The highest final concentration of gemcitabine used is 80 μM and dilutions proceed by four-fold steps. Two hours later, gemcitabine-containing medium is removed from the wells and replaced with 150 μL per well of fresh RPMI medium. […] The volume of addition is 50 μL. Compound dilutions proceed by two-fold steps, starting at 5000 nM. […] Twenty μL of this solution is added to each well, yielding 1 µCi/well of ^3H-thymidine. Cells are labeled for twenty-two hours. The medium containing ^3H-thymidine is thoroughly removed from the wells. The plates are then frozen at −20° C., for several hours. To harvest the DNA containing incorporated ^3H-thymidine, plates are thawed for several minutes, and then 120 μL per well of 0.1 N NaOH is added to each well. Each plate is then incubated at 37° C., with slow mixing on a rotator, for 10 minutes. DNA is harvested with a Filtermate 196 Harvester (PerkinElmer) and collected on 96-well Unifilter GF/C plates (PerkinElmer #6005174). The wells of the tissue culture plate on which cells had been labeled are washed with water (5×). The Unifilter plate membranes are washed with an additional 4.5 mL per well (3×1.0 mL and finally a 1.5 mL wash). The Unifi is sealed with a Backseal adhesive sheet (PerkinElmer), and the 50 μL/well of MicroScint-20 (Perkin Elmer) is added. Each plate is then sealed with a Topseal clear adhesive sheet (PerkinElmer). Plates are counted on a Topcount scintillation counter (PerkinElmer), at 1 minute per well. ^3H-thymidine counts per minute (cpm) are exported into Prism (GraphPad) for analysis and plotting. […] For plotting the data in Prism, the gemcitabine concentrations are transformed to log values, and dose-response curves are fit by non-linear regression. Neither top nor bottom fits are constrained. The ECtfs value is 0.3 nM.

[1] = tested on: RD, SJCRH30, Saos-2 and RD-ES cell lines; assay: In Vitro Response of Pediatric Cell Lines (western blot); format: cell-based; settings: 24 hours at 5 and 50 nM
Experimental: Cellular lysates can be obtained from embryonal and alveolar rhabdomyosarcoma (RD and SJCRH30, respectively), osteosarcoma (Saos-2), and Ewing's sarcoma (RD-ES) cell lines treated with 5-(5-(2-(3-aminopropoxy)-6-methoxyphenyl)-1H-pyrazol-3-ylamino)pyrazine-2-carbonitrile methanesulfonic acid monohydrate (Example 5) for 24 hours at 5 and 50 nM final concentration.
A western blot can be run using the cellular lysates described above. […] Higher levels of DNA damage can be observed with CHK1 inhibition. Accordingly, the levels of gammaH2AX, a signal for DNA damage, increase upon treatment with 5-(5-(2-(3-aminopropoxy)-6-methoxyphenyl)-1H-pyrazol-3-ylamino)pyrazine-2-carbonitrile methanesulfonic acid monohydrate (Example 5).

[2] = tested on: Embryonal Rhabdomyosarcoma xenograft models; assay: Sarcoma xenograft models by tumor subtype: Embryonal Rhabdomyosarcoma; format: in vivo, mouse; settings: age of patients 2-7 years
Experimental: The efficacy of 5-(5-(2-(3-aminopropoxy)-6-methoxyphenyl)-1H-pyrazol-3-ylamino)pyrazine-2-carbonitrile methanesulfonic acid monohydrate is measurable in vivo in mouse models of neuroblastomas and human pediatric and adult sarcomas. 5-(5-(2-(3-Aminopropoxy)-6-methoxyphenyl)-1H-pyrazol-3-ylamino)pyrazine-2-carbonitrile methanesulfonic acid monohydrate (10 mg/kg) can be administered subcutaneously to nude mice bearing either cell-derived xenografts (CDX) or patient-derived xenografts (PDX) of human rhabdomyosarcoma, desmoplastic small round cell tumor (DSRCT), osteosarcoma, and Ewing's sarcoma using a 3 day on, 4 day off b.i.d. dosing schedule. Tumor volume and body weight can be measured two times per week. Tumor-specific parameters can be evaluated by immumohistochemistry.
Expand human RMS cancer cells SJCRH-30 (St. Jude Children's Research Hospital) in culture, harvest, and inject 5×10^6 cells in 200 μL of HBSS subcutaneously into the right rear flank of female athymic nude mice (20-22 g, Harlan Laboratories). […]
For all “ST” models (encompassing RMS and LMS), patient-derived xenografts are established from viable human tumor tissue and are serially passaged in animals a limited number of times to maintain tumor heterogeneity. […] Tumor response is determined by tumor volume measurement performed twice per week during the course of treatment.

| SMILES | decrease of the EC50 of gemcitabine (HT-29 cells; HT29 cells, 3 nM of the compound of Example 2) [fold] | ECtfs value (HT-29 cells; HT-29 cells, concentration necessary to reduce by half the GI90 concentration of gemcitabine, 3H-thymidine incorporation) [nM] | effect on the proliferation of HT29 cells (HT-29 cells; compound alone, 3 nM) | CHK1 protein levels [1] | levels of gammaH2AX (signal for DNA damage) [1] | levels of phospho-AKT [1] | phospho-CHK1 (S345) levels [1] | levels of phospho-ERK 1/2 (T202/Y204) ([1]; RD-ES non-responding) | phospho-hnRNP-C levels ([1]; unaffected in the RD-ES cell line) | Result of Treatment: Complete Response (models) [2] | Result of Treatment: Stable Disease (models) [2] |
| --- | --- | --- | --- | --- | --- | --- | --- | --- | --- | --- | --- |
| COc1cccc(OCCCN)c1-c1cc(Nc2cnc(C#N)cn2)n[nH]1 [Example 2, 5-(5-(2-(3-Aminopropoxy)-6-methoxyphenyl)-1H-pyrazol-3-ylamino)pyrazine-2-carbonitrile dihydrogen chloride salt] | 7 | 0.3 | little effect |  |  |  |  |  |  |  |  |
| COc1cccc(OCCCN)c1-c1cc(Nc2cnc(C#N)cn2)n[nH]1 [Example 5, 5-(5-(2-(3-Aminopropoxy)-6-methoxyphenyl)-1H-pyrazol-3-ylamino)pyrazine-2-carbonitrile methanesulfonic acid monohydrate] |  |  |  | do not change | increase | do not appear to change | increase | increase in three out of four cell lines | increase | 1/3 Complete | Response; 1/3 |

Source: patent publication US12558345B2, “CHK1/2 inhibitors for use in the treatment of neuroblastomas and/or soft tissue sarcomas” (Eli Lilly and Company, priority 2015, dated 2026)
